The text below walks through data of patent US4684651A, “Alkylenedioxybenzene and acid addition salts thereof useful as hypotensives” (Mitsubishi Chemical Industries Limited, priority 1981, dated 1987).

Structures are written as SMILES. Counter-ions that a name gives are not always drawn.

As usually defined, the LD50 is the dose expected to kill half of the subjects tested. Low readings indicate greater toxicity, high ones lower toxicity.

Data set [1] deals with spontaneous hypertensive rats (SHR). Nature of the data set: Hypotensive activity in spontaneous hypertensive rats (oral). Format: in vivo. The note with it: Rattus norvegicus, relative to blood pressure before medication, read-out: Hypotensive effect (average % drop in blood pressure); for inhibition in vivo at 1 mg/kg: 1 mg/kg p.o.; for inhibition in vivo at 3 mg/kg: 3 mg/kg p.o.; for inhibition in vivo at 10 mg/kg: 10 mg/kg p.o. The procedure: The hypotensive activities of the compounds of this invention were tested as follows: The test animals used were spontaneous hypertensive rats (SHR) of 5 to 7 month old weighing 300 to 370 g. The blood pressure and the heart rate were measured bloodily under no anesthesia by means of a catheter which has been inserted through the tail's artery under ether anesthesia, thereby determining the average blood pressure and heart rate before medication. […] The hypotensive effect was expressed as percent drop relative to the blood pressure before medication.

Data set [2] is described as follows: Acute toxicity (LD50) in mice. The note with it: mouse, in vivo, iv, Litchfield-Wilcoxon method. The procedure: The values for acute toxicity (LD50) were calculated by the Litchfield-Wilcoxon method from the data obtained on mice.

Regarding `COc1ccccc1N1CCN(CC(O)c2ccc3c(c2)OCO3)CC1` (centres unmarked) [Compound 2, 5-[2-[4-(2-methoxyphenyl)-1-piperazinyl]-1-hydroxyethyl]-1,3-benzodioxole], in data set [1], the inhibition in vivo at 1 mg/kg stood at 10.2%, the inhibition in vivo at 3 mg/kg stood at 19.2% and the inhibition in vivo at 10 mg/kg was determined as 36.5%.
As to `OC(CN1CCN(c2ccccc2)CC1)c1ccc2c(c1)OCCCO2` (centres unmarked) [Compound 8, 7-[2-(4-phenyl-1-piperazinyl)-1-hydroxyethyl]-1,5-benzodioxepine], in data set [1], the inhibition in vivo at 1 mg/kg turned out to be 8.6%, the inhibition in vivo at 3 mg/kg was found to be 14.1% and the inhibition in vivo at 10 mg/kg stood at 25%.
Turning to `OC(CCN1CCN(c2ccccc2Cl)CC1)c1ccc2c(c1)OCCO2` (centres unmarked) [Compound 16], in data set [1], the inhibition in vivo at 1 mg/kg was found to be 7.9%, the inhibition in vivo at 3 mg/kg was 11.9% and the inhibition in vivo at 10 mg/kg was found to be 29.8%.
The matching figures for `COc1ccccc1N1CCN(CCC(O)c2ccc3c(c2)OCCO3)CC1` (centres unmarked) [Compound 17]: 8.1%, 20.5% and 53.1%.
The like results for `OC(CCCN1CCN(c2ccccc2)CC1)c1ccc2c(c1)OCO2` (centres unmarked) [Compound 19, 5-[4-(4-phenyl-1-piperazinyl)-1-hydroxybutyl]-1,3-benzodioxole dihydrochloride] were, in that order, 12.8%, 45.9% and 56.6%.
The like results for `OC(CCCN1CCN(c2ccccc2)CC1)c1ccc2c(c1)OCCO2` (centres unmarked) [Compound 20, 6-[4-(4-phenyl-1-piperazinyl)-1-hydroxybutyl]-1,4-benzodioxane] were, in that order, 13.7%, 38.4% and 56.1%.
As for `OC(CCCN1CCN(c2ccccc2)CC1)c1ccc2c(c1)OCCCO2` (centres unmarked) [Compound 21], in data set [1], the inhibition in vivo at 1 mg/kg was determined as 19.8%, the inhibition in vivo at 3 mg/kg was 30.9% and the inhibition in vivo at 10 mg/kg came to 43.4%. The LD50 in data set [2] amounted to 184 mg/kg.
Take `OC(CCCN1CCN(c2ccccn2)CC1)c1ccc2c(c1)OCCCO2` (centres unmarked) [Compound 25]: in data set [1], the inhibition in vivo at 1 mg/kg amounted to 30.3%, the inhibition in vivo at 3 mg/kg was 35.8% and the inhibition in vivo at 10 mg/kg was 43.9%. This compound had an LD50 in data set [2] of 68.5 mg/kg.
As to `OC(CCCCN1CCN(c2ccccc2)CC1)c1ccc2c(c1)OCO2` (centres unmarked) [Compound 26, 5-[5-(4-phenyl-1-piperazinyl)-1-hydroxypentyl]-1,3-benzodioxole], in data set [1], the inhibition in vivo at 1 mg/kg was 13%, the inhibition in vivo at 3 mg/kg worked out at 21.9% and the inhibition in vivo at 10 mg/kg was 52.6%.
The like results for `OC(CCCCN1CCN(c2ccccc2)CC1)c1ccc2c(c1)OCCCO2` (centres unmarked) [Compound 29, 7-[5-(4-phenyl-1-piperazinyl)-1-hydroxypentyl]-1,5-benzodioxepine] were, in that order, 10.8%, 27.5% and 50.7%.
`OC(CCCN1CCN(c2ccccn2)CC1)c1ccc2c(c1)OCO2` (centres unmarked) [Compound 31, 5-[4-[4-(2-pyridyl)-1-piperazinyl]-1-hydroxybutyl]-1,3-benzodioxole]: in data set [1], the inhibition in vivo at 1 mg/kg came out at 11.5%, the inhibition in vivo at 3 mg/kg was 33.6% and the inhibition in vivo at 10 mg/kg was 45.7%.
Consider `COc1ccccc1N1CCN(CCCC(O)c2ccc3c(c2)OCCO3)CC1` (centres unmarked) [Compound 33, 6-[4-[4-(2-methoxyphenyl)-1-piperazinyl]-1-hydroxybutyl]-1,4-benzodioxane], for which, in data set [1], the inhibition in vivo at 1 mg/kg turned out to be 22.6%, the inhibition in vivo at 3 mg/kg was found to be 41.8% and the inhibition in vivo at 10 mg/kg is 43.2%.
The like results for `COc1ccccc1N1CCN(CCCC(O)c2ccc3c(c2)OCCCO3)CC1` (centres unmarked) [Compound 34, 7-[4-[4-(2-methoxyphenyl)-1-piperazinyl]-1-hydroxybutyl]-1,5-benzodioxepine] were, in that order, 24.5%, 40.4% and 48%.
Turning to `OC(CCCCN1CCN(c2ccccn2)CC1)c1ccc2c(c1)OCCCO2` (centres unmarked) [Compound 36], in data set [1], the inhibition in vivo at 1 mg/kg is 10.1%, the inhibition in vivo at 3 mg/kg turned out to be 19.4% and the inhibition in vivo at 10 mg/kg is 31%.
The like results for `COc1ccccc1N1CCN(CCCCC(O)c2ccc3c(c2)OCCCO3)CC1` (centres unmarked) [Compound 37] were, in that order, 15.6%, 30.4% and 45.7%.
The like results for `O=C(CCN1CCN(c2cccc(F)c2)CC1)c1ccc2c(c1)OCCO2` [Compound 51] were, in that order, 5.9%, 14.5% and 49.9%.
With `O=C(CCN1CCN(c2ccccc2)CC1)c1ccc2c(c1)OCCCO2` [Compound 56], in data set [1], the inhibition in vivo at 1 mg/kg amounted to 6.2%, the inhibition in vivo at 3 mg/kg is 17% and the inhibition in vivo at 10 mg/kg turned out to be 31.5%.
Consider `O=C(CCCN1CCN(c2ccccc2)CC1)c1ccc2c(c1)OCCO2` [Compound 58, 6-[4-(4-phenyl-1-piperazinyl)butyryl]-1,4-benzodioxane], for which, in data set [1], the inhibition in vivo at 1 mg/kg is 12.7%, the inhibition in vivo at 3 mg/kg was 51.6% and the inhibition in vivo at 10 mg/kg was 62.7%.
The like results for `O=C(CCCN1CCN(c2ccccc2)CC1)c1ccc2c(c1)OCCCO2` [Compound 59] were, in that order, 9.8%, 34.4% and 40.5%.
For `O=C(CCCCN1CCN(c2ccccc2)CC1)c1ccc2c(c1)OCO2` [Compound 64, 5-[5-(4-phenyl-1-piperazinyl]valeryl]-1,3-benzodioxole], in data set [1], the inhibition in vivo at 1 mg/kg was 10.1%, the inhibition in vivo at 3 mg/kg stood at 21.3% and the inhibition in vivo at 10 mg/kg came out at 54.5%. The median lethal dose (LD50) in data set [2] was 45.7 mg/kg.
For the compound `O=C(CCCCN1CCN(c2ccccc2)CC1)c1ccc2c(c1)OCCO2` [Compound 65, 6-[5-(4-phenyl-1-piperwzinyl)valeryl]-1,4-benzodioxane], the inhibition in vivo at 1 mg/kg in data set [1] amounted to 21.7%.
Take `O=C(CCCCN1CCN(c2ccccc2)CC1)c1ccc2c(c1)OCCCO2` [Compound 68, 7-[5-(4-phenyl-1-piperazinyl)valeryl]-1,5-benzodioxepine]: in data set [1], the inhibition in vivo at 1 mg/kg was found to be 12.5%, the inhibition in vivo at 3 mg/kg was 28.6% and the inhibition in vivo at 10 mg/kg turned out to be 44%.
For `COc1ccccc1N1CCN(CCCCC(=O)c2ccc3c(c2)OCCCO3)CC1` [Compound 69], the inhibition in vivo at 1 mg/kg in data set [1] was found to be 23.8%.
For `O=C(CCCN1CCN(c2ccccn2)CC1)c1ccc2c(c1)OCO2` [Compound 71, 5-[4-[4-(2-pyridyl)-1-piperazinyl]butyryl]-1,3-benzodioxole], in data set [1], the inhibition in vivo at 1 mg/kg worked out at 11.5%, the inhibition in vivo at 3 mg/kg was 20.9% and the inhibition in vivo at 10 mg/kg worked out at 43.1%.
Consider `O=C(CCCN1CCN(c2ccccn2)CC1)c1ccc2c(c1)OCCO2` [Compound 72, 6-[4-[4-(2-pyridyl)-1-piperazinyl]butyryl]-1,4-benzodioxane], for which, in data set [1], the inhibition in vivo at 1 mg/kg stood at 10.1%, the inhibition in vivo at 3 mg/kg was determined as 25.3% and the inhibition in vivo at 10 mg/kg was 46.4%.
For the compound `COc1ccccc1N1CCN(CCCC(=O)c2ccc3c(c2)OCCO3)CC1` [Compound 74, 6-[4-[4-(2-methoxyphenyl)-1-piperazinyl]butyryl]-1,4-benzodioxane], the inhibition in vivo at 1 mg/kg in data set [1] is 29.9%.
Turning to `COc1ccccc1N1CCN(CCCCC(=O)c2ccc3c(c2)OCCO3)CC1` [Compound 76, 6-[5-[4-(2-methoxyphenyl)-1-piperazinyl]varleryl]-1,4-benzodioxane], in data set [1], the inhibition in vivo at 1 mg/kg was found to be 8.6%, the inhibition in vivo at 3 mg/kg is 23.7% and the inhibition in vivo at 10 mg/kg was determined as 56.7%.
Take `COc1ccccc1N1CCN(CCCCC(=O)c2ccc3c(c2)OCO3)CC1` [Compound 77, 5-[5-[4-(2-methoxyphenyl)-1-piperazinyl]valeryl]-1,3-benzodioxole]: in data set [1], the inhibition in vivo at 1 mg/kg amounted to 12.9%, the inhibition in vivo at 3 mg/kg is 21.5% and the inhibition in vivo at 10 mg/kg was found to be 34.5%.
In the case of `O=C(CCCCN1CCN(c2ccccn2)CC1)c1ccc2c(c1)OCCCO2` [Compound 78, 7-[5-[4-(2-pyridyl)-1-piperazinyl]valeryl]-1,5-benzodioxepine], in data set [1], the inhibition in vivo at 1 mg/kg was found to be 13.7%, the inhibition in vivo at 3 mg/kg came out at 24.9% and the inhibition in vivo at 10 mg/kg was 27.8%.
The matching figures for `COc1ccccc1N1CCN(CCCCC(=O)c2ccc3c(c2)OCC(C)(C)CO3)CC1` [Compound 79, 7-[5-[4-(2-methoxyphenyl)-1-piperazinyl]valeryl]-3,3-dimethyl-1,5-benzodioxepine]: 8%, 15.8% and 32.5%.
Turning to `COc1ccccc1N1CCN(CCN(C(C)=O)c2ccc3c(c2)OCO3)CC1` [Compound 81, N-[2-[4-(2-methoxyphenyl)-1-piperazinyl]ethyl]-N-acetyl-3,4-methylenedioxyaniline hydrochloride], in data set [1], the inhibition in vivo at 1 mg/kg is 15.5% and the inhibition in vivo at 3 mg/kg came out at 21.2%.
